Experimental data published in ChEMBL document CHEMBL1201862, “PubChem BioAssay data set” (2004).
Blank lines part the entries; values can stand above or below the compound they belong to. Active and inactive are the calls of the source.

Key:
[1] = molecular target: Cyclin-dependent kinase 2 (Homo sapiens, UniProt P24941); type: functional;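 also: CDK2 measured as one member of a broad kinome profiling panel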
[2] = molecular target: Cell division cycle 7-related protein kinase (Homo sapiens, UniProt O00311); type: functional;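 also: value obtained from a kinome-wide kinase panel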
[3] = molecular target: Serine/threonine-protein kinase N2 (Homo sapiens, UniProt Q16513); type: functional
[4] = molecular target: Homeodomain-interacting protein kinase 2 (Homo sapiens, UniProt Q9H2X6); type: functional;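 also: measured within a kinome-wide kinase profiling panel, HIPK2 being one panel member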
[5] = molecular target: Serine/threonine-protein kinase 3 (Homo sapiens, UniProt Q13188); type: functional;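 also: measured as one member of a kinome-wide kinase panel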
[6] = molecular target: T1, Heat shock factor protein 1 (Mus musculus, UniProt P38532); experiment: inhibition of MG132-induced HSE-luciferase signal, confirmation, cell-based, NIH3T3, luminescence, dose retest (AID 2382); type: functional;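 also: NIH3T3 fibroblasts with HSF1-driven luciferase reporter stressed by proteasome inhibitor MG132; luminescence from HSF1-driven luciferase expression after 8 hours of MG132 stress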
T1 sequence (P38532 whole entry): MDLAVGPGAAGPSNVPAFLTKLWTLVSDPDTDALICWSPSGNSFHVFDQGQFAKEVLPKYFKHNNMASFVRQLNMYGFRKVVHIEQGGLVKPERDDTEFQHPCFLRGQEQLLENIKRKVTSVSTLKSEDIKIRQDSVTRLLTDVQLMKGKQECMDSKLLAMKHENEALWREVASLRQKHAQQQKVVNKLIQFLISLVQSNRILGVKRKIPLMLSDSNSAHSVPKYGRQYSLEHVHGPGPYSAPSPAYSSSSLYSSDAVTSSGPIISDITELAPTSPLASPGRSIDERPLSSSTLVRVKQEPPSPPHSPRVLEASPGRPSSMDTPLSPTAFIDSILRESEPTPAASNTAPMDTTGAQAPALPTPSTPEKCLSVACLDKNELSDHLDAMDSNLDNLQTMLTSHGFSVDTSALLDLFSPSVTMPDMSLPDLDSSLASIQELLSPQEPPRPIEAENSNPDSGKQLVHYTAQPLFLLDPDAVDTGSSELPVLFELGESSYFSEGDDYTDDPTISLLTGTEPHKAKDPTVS

[7] = molecular target: Hepatocyte growth factor receptor (Homo sapiens, UniProt P08581); type: functional;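 also: kinase panel profiling across the kinome, with MET as the panel member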
[8] = molecular target: Focal adhesion kinase 1 (Homo sapiens, UniProt Q05397); type: functional;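 also: measured as one member of a kinome panel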
[9] = inhibitors of firefly luciferase expression or activity, dose response, H4 neuroglioma cells, luminescence (AID 1990); type: functional, cell-based
[10] = molecular target: T2, Hexokinase HKDC1 (Homo sapiens, UniProt Q2TB90); experiment: HKDC1 hexokinase activators, dose response, biochemical, W721R variant (AID 504730); type: functional
T2 sequence (Q2TB90 whole entry): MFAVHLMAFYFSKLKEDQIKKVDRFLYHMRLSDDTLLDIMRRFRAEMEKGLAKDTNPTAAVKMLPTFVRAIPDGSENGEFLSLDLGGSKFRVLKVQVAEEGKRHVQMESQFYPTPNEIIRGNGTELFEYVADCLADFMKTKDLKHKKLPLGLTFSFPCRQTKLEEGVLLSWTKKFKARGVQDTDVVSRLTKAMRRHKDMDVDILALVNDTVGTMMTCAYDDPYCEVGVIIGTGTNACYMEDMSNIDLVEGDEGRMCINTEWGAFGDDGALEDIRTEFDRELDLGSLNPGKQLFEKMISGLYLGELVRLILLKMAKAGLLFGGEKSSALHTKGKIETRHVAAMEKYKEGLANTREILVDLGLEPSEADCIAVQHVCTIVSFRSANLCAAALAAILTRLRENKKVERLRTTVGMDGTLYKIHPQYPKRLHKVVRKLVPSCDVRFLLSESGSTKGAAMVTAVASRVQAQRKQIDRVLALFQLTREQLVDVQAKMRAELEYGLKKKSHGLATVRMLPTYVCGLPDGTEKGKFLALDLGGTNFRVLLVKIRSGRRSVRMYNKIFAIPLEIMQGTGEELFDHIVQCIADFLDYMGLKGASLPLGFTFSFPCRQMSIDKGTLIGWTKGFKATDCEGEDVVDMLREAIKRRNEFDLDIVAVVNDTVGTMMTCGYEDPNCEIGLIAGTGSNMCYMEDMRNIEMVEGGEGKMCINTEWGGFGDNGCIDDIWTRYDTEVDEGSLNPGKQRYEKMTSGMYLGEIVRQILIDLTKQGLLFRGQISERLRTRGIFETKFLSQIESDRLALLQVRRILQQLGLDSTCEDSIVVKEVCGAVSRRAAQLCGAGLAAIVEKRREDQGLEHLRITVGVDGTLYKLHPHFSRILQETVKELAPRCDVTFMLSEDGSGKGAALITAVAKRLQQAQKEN

[11] = HeLa cell cytotoxicity, dose response, cytotoxicity control for MgcRacGAP inhibitor project (AID 624300); type: functional
[12] = inhibitors of HIV Env-driven cell fusion, dose response, cherry-pick (AID 652057); type: functional, cell-based
[13] = ZM109 Env clade C HIV-1 fusion inhibitors, dose response, HeLa effector, CEM target cells, luciferase, cherry-pick (AID 652058); type: functional, cell-based
[14] = off-target signal loss in HeLa-CEM21 co-culture – HeLa F-luc CTL cells, cherry-picked, counter-screen for HIV-1 Env fusion inhibitor project, dose response (AID 652040); type: functional, cell-based;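 also: potency for signal decrease marking cytotoxic or nonspecific inhibition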
[15] = cells
[16] = molecular target: T3, RNA-binding protein pos-1 (Caenorhabditis elegans, UniProt G5EF15); experiment: inhibitors of POS-1/mex-3 RNA binding, dose response, biochemical, fluorescence polarization (AID 1964);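 also: purified POS-1 fused to maltose binding protein made in E. coli; potency of compounds blocking POS-1 binding to fluorescent RNA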
T3 sequence (G5EF15 whole entry): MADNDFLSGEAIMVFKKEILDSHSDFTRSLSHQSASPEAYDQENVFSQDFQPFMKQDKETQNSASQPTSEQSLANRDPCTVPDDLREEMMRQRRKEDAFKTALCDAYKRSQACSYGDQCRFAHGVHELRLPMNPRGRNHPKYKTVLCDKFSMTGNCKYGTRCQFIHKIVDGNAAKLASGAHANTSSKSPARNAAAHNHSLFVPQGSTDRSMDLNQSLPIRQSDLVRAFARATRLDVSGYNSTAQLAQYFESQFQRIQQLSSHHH

[17] = molecular target: T4, Sentrin-specific protease 8 (Homo sapiens, UniProt Q96LD8); type: functional
T4 sequence (Q96LD8 whole entry): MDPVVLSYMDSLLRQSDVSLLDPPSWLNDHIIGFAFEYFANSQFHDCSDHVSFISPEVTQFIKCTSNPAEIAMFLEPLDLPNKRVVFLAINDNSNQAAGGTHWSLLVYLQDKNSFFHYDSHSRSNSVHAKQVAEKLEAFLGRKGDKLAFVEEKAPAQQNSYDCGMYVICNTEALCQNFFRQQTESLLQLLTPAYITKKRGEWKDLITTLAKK

[18] = test system: BJ; experiment: cytotoxicity toward BJ-TERT fibroblasts, dose response, cell-based, RAS-independent, luminescence (AID 1933); type: functional; conditions: Homo sapiens
[19] = cytotoxicity toward DRD oncogenic fibroblasts, dose response, cell-based, non-viral oncogenic, luminescence (AID 1934); type: functional; conditions: Homo sapiens

Sequence of Focal adhesion kinase 1 (Q05397 whole entry): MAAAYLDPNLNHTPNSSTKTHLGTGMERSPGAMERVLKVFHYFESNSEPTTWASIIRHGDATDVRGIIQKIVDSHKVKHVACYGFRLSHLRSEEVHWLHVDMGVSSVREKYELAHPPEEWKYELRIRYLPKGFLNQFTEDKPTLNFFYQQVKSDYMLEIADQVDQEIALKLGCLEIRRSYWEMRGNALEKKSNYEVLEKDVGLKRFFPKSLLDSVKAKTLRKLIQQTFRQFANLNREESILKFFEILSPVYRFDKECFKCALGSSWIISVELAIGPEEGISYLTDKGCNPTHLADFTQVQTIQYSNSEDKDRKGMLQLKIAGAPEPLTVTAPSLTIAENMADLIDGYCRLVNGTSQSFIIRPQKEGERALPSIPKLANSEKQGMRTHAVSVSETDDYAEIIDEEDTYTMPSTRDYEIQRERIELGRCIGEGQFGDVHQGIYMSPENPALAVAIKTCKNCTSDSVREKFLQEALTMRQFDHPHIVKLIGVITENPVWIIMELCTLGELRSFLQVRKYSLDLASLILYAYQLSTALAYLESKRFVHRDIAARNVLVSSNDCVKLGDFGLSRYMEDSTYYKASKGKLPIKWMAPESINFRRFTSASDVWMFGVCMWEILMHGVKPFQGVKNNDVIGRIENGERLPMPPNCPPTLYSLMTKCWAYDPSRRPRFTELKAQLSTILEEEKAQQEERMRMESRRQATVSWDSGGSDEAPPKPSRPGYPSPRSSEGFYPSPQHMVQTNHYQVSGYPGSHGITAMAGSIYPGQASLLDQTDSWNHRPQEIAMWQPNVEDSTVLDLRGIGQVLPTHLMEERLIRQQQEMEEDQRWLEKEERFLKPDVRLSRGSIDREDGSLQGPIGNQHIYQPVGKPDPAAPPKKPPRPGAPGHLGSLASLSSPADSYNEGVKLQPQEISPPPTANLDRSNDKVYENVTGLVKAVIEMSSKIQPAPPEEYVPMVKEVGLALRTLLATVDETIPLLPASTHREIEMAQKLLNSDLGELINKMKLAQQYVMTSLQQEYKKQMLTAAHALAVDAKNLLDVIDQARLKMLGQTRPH
Sequence of Homeodomain-interacting protein kinase 2 (Q9H2X6 whole entry): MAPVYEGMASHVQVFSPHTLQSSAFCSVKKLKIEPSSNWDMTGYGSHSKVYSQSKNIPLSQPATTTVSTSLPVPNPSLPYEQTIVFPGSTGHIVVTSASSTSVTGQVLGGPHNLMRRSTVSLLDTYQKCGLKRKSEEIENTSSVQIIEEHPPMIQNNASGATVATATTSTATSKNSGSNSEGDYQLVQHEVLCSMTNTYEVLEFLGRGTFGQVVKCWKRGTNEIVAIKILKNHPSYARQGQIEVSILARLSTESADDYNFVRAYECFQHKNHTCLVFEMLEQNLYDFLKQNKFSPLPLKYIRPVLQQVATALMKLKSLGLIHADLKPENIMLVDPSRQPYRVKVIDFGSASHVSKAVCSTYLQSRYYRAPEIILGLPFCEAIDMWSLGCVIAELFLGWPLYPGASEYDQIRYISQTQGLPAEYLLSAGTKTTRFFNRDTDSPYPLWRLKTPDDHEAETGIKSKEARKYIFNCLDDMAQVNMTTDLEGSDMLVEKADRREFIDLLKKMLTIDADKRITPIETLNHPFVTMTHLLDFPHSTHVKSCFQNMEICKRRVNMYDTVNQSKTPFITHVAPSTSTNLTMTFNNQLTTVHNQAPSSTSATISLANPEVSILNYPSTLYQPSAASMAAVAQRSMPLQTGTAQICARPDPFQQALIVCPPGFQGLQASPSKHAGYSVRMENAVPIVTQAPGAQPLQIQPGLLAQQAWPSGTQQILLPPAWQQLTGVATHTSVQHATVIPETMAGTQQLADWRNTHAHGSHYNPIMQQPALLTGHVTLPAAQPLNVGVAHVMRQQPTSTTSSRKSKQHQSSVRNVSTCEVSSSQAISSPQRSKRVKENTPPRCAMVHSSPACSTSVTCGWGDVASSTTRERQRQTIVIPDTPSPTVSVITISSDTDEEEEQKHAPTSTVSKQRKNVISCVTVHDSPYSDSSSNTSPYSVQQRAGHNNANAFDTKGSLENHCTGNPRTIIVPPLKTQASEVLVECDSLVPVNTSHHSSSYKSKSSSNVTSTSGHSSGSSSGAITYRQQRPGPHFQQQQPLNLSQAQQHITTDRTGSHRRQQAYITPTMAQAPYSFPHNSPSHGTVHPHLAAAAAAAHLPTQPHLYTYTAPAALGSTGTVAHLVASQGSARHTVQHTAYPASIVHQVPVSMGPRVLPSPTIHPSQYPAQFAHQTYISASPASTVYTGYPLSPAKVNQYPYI
Sequence of Cell division cycle 7-related protein kinase (O00311 whole entry): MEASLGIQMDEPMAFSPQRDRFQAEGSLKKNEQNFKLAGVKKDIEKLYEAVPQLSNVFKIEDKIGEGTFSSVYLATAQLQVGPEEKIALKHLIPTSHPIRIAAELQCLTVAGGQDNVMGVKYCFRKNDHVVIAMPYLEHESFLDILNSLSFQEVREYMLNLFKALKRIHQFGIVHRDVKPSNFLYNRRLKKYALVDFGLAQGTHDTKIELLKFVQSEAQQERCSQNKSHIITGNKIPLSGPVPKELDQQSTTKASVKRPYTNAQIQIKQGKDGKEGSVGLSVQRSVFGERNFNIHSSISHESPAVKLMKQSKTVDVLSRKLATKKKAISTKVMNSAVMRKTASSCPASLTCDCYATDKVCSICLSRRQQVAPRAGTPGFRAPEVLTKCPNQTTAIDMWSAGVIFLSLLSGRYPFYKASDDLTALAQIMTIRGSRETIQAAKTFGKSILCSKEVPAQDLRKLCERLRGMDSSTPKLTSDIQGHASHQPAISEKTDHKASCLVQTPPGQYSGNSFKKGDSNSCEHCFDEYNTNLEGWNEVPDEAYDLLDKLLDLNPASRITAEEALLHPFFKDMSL
Sequence of Hepatocyte growth factor receptor (P08581 whole entry): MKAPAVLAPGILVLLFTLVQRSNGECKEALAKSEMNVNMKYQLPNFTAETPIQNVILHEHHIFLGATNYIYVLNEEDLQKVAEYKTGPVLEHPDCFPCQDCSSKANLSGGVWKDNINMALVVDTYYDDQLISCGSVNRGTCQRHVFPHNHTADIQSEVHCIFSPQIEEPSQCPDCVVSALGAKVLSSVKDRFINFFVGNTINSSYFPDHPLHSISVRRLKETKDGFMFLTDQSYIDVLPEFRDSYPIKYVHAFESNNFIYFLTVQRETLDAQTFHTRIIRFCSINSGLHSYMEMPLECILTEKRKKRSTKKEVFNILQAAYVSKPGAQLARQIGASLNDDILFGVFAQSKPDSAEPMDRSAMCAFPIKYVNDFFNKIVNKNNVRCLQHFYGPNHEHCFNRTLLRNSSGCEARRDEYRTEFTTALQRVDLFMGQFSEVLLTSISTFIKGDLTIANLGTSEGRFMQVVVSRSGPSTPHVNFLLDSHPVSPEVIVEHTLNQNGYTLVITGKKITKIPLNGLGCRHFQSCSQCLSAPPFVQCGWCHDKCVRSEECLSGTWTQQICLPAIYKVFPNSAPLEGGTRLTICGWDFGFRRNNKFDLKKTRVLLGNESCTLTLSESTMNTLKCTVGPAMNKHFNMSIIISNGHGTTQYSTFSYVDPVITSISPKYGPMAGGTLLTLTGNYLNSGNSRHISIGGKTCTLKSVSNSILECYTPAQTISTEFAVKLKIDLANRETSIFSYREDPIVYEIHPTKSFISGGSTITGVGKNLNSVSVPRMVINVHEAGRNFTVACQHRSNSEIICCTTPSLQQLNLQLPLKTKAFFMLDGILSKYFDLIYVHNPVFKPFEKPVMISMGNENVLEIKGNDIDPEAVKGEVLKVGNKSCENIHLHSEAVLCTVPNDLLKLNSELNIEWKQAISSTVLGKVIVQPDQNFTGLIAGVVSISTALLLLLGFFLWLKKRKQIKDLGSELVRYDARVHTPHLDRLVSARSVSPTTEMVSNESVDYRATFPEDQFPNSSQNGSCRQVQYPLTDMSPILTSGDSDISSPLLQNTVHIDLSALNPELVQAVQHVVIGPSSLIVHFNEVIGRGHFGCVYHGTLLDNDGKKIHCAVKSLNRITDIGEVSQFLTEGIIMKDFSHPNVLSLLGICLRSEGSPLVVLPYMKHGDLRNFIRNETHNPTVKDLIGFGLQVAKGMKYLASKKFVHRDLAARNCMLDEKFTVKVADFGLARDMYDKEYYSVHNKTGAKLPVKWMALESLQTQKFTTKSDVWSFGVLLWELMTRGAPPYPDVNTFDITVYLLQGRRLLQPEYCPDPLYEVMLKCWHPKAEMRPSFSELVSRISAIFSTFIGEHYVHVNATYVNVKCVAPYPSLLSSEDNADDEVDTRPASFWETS
Sequence of Serine/threonine-protein kinase 3 (Q13188 whole entry): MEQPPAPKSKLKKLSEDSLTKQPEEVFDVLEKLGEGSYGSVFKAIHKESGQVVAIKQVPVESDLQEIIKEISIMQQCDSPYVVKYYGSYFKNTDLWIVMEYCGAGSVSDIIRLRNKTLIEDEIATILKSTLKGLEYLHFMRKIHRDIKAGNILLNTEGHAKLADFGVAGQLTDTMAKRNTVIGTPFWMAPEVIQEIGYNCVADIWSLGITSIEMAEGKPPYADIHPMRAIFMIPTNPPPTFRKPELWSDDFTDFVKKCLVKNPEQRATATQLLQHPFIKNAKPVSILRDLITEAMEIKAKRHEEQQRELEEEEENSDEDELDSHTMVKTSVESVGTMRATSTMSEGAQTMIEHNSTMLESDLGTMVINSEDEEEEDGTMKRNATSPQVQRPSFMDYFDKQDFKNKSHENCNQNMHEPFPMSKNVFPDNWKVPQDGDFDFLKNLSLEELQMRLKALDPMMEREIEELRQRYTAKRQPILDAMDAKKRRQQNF

- Ki [1]: > 3.16 µM (inactive)
- Ki [2]: 0.00158 µM (active)
- Ki [3]: > 5.01 µM (inactive)
- Ki [4]: > 3.98 µM (inactive)
- Ki [5]: > 3.16 µM (inactive)
Compound: O=C(Nc1cc(-c2c[nH]c3ncccc23)cc(Cl)n1)c1ccccc1

Compound: CNC[C@H](Cc1ccccc1)NC[C@@H](Cc1cccc2ccccc12)NCCc1ccc(C)cc1
- EC50 [6]: 18.5 µM (active)

- Ki [7]: > 2.51 µM (inactive)
- Ki [8]: > 6.31 µM (inactive)
Compound: Nc1c(-c2ccc(NC(=O)Nc3cccc(C(F)(F)F)c3)cc2)cnc2c(-c3ccc4c(c3)OCO4)cnn12

Compound: CCN1C(=Cc2sc3ccccc3[n+]2C)C=Cc2cccc(C)c21
- EC50 [9]: 0.142 µM (active)
- EC50 [10]: > 80 µM (inactive)
- CC50 [11]: 13.8 µM (active)
- AC50 [12]: 1.86 µM (active)
- AC50 [13]: 7.58 µM (active)
- AC50 [14]: 9.01 µM (active)
- EC50 [15]: < 0.004 µM (active)

- EC50 [16]: 104 µM (active)
Compound: Nc1nnc2c(n1)CCCC2
- IC50 [17]: 6.32 µM (active)

Compound: O=C(N/N=C/c1c(O)ccc2ccccc12)c1[nH]ncc1Br
- EC50 [18]: 24.6 µM (active)
- EC50 [19]: 3.04 µM (active)
